Marks after values point to notes of the source that are not given here.
Legend:
Septoria tritici = assay: Test J: wheat leaf blotch, preventive spray on wheat seedlings; assay type: in vivo
From the text: A dash (-) indicates no test results.

Plasmopara viticola = assay: Test D: grape downy mildew, spray after inoculation of grape seedlings; assay type: in vivo; settings: 200 ppm
From the text: Upon removal, disease ratings were made. […] A dash (-) indicates no test results.

Sclerotinia sclerotiorum = assay: Test C: cucumber white mold, preventive spray on cucumber seedlings
Septoria nodorum = assay: Test H: wheat glum blotch, preventive spray on wheat seedlings
Method: (the causal agent of wheat glum blotch) and incubated in a saturated atmosphere at 20° C. for 48 h, and then moved to a growth chamber at 22° C. for 5 days, after which disease ratings were made.

[1] = test system: Erysiphe graminis f. sp. tritici; assay: Test L: wheat powdery mildew, preventive spray on wheat seedlings
[2] = test system: Colletotrichum orbiculare; assay: Test B: cucumber Colletotrichum anthracnose, preventive spray on cucumber seedlings
Rhizoctonia oryzae = assay: Test G: turf brown patch, preventive spray on creeping bent grass seedlings
Method: (the causal agent of turf brown patch) and incubated in a saturated atmosphere at 27° C. for 24 h, and then moved to a growth chamber at 27° C. for 5 days, after which disease ratings were made.

fusarium graminearium = assay: Test I: wheat head scab, preventive spray on wheat seedlings; settings: 200 ppm
Method: (the causal agent of wheat head scab) and incubated in a saturated atmosphere at 20° C. for 72 h, and then moved to a growth chamber at 22° C. for 5 days, after which disease ratings were made.

Botrytis cinerea = assay: Test E: tomato botrytis, preventive spray on tomato seedlings
Pythium aphanidermatum = assay: Test A: bluegrass pythium blight, preventive spray on bluegrass seedlings; settings: 200 ppm
Phytophthora infestans = assay: whole plant or invertebrate; assay type: in vivo; settings: 200 ppm
[3] = test system: Puccinia recondita f. sp. tritici; assay: Test K: wheat leaf rust, preventive spray on wheat seedlings

Row | SMILES | Test J disease control rating (Septoria tritici; 200 ppm) | Test D disease control rating (Plasmopara viticola) | Test C disease control rating (Sclerotinia sclerotiorum; 200 ppm) | Test H disease control rating (Septoria nodorum; 200 ppm) | Test L disease control rating ([1]; 200 ppm) | Test B disease control rating ([2]; 200 ppm) | Test G disease control rating (Rhizoctonia oryzae; 200 ppm) | Test I disease control rating (fusarium graminearium) | Test E disease control rating (Botrytis cinerea; 200 ppm) | Test A disease control rating (Pythium aphanidermatum) | Test F disease control rating (Phytophthora infestans) | Test K disease control rating ([3]; 200 ppm) | Test J disease control rating (Septoria tritici; 40 ppm (*)) | Test C disease control rating (Sclerotinia sclerotiorum; 40 ppm (*)) | Test H disease control rating (Septoria nodorum; 40 ppm (*)) | Test L disease control rating ([1]; 40 ppm (*)) | Test B disease control rating ([2]; 40 ppm (*)) | Test G disease control rating (Rhizoctonia oryzae; 40 ppm (*)) | Test E disease control rating (Botrytis cinerea; 40 ppm (*)) | Test K disease control rating ([3]; 40 ppm (*))
1 | O=c1c(-n2cccn2)nc(Cl)c(-c2c(F)cccc2F)n1C1CCCCC1 [compound 47] | 100% | 0% | 0% | 99% | 99% | 54% | 92% | 78% | 100% | 74% | 0% | 95% | – | – | – | – | – | – | – | –
2 | CC(C)Cn1c(-c2cccc(F)c2F)c(Cl)nc(-n2cccn2)c1=O [compound 50] | – | 0% | 98% | 100% | 94% | 0% | 95% | 0% | 100% | 0% | 0% | 100% | 100* % | – | – | – | – | – | – | –
3 | CC(C)Cn1c(-c2cc(F)ccc2F)c(Cl)nc(-n2cccn2)c1=O [compound 56] | – | 29% | 99% | 100% | 99% | 99% | 92% | 60% | 100% | 0% | 0% | 99% | 100* % | – | – | – | – | – | – | –
4 | CC(C)Cn1c(-c2c(F)ccc(F)c2F)c(Cl)nc(-n2cccn2)c1=O [compound 57] | – | 32% | 98% | 100% | 100% | 100% | 98% | 0% | 100% | 0% | 0% | 100% | 99* % | – | – | – | – | – | – | –
5 | CCC(C)Cn1c(-c2c(F)cccc2F)c(Cl)nc(-n2ccc(C)n2)c1=O (stereo not drawn) [compound 66] | – | 0% | – | – | – | – | – | 0% | – | 0% | 0% | – | 100* % | 0* % | 89* % | 99* % | 62* % | 95* % | 100* % | 97* %
6 | CCC(C)Cn1c(-c2c(F)cccc2F)c(Cl)nc(-n2cnc(C#N)c2C#N)c1=O (stereo not drawn) [compound 67] | 24% | 0% | 0% | – | – | – | – | 0% | – | 0% | 0% | – | – | – | 0* % | 0* % | 0* % | 0* % | 0* % | 0* %
7 | CCC(C)Cn1c(-c2c(F)cccc2F)c(Cl)nc(-n2cnc(Cl)c2Cl)c1=O (stereo not drawn) [compound 68] | – | 0% | 0% | – | – | – | – | 0% | – | 0% | 0% | – | 26* % | – | 0* % | 0* % | 0* % | 0* % | 0* % | 0* %
8 | CCc1nccn1-c1nc(Cl)c(-c2c(F)cccc2F)n(CC(C)CC)c1=O (stereo not drawn) [compound 70] | – | 0% | 0% | – | – | – | – | 0% | – | 0% | 0% | – | 83* % | – | 0* % | 0* % | 0* % | 0* % | 0* % | 55* %
9 | CCCc1nccn1-c1nc(Cl)c(-c2c(F)cccc2F)n(CC(C)CC)c1=O (stereo not drawn) [compound 71] | – | 0% | 0% | – | – | – | – | 0% | – | 0% | 0% | – | 64* % | – | 0* % | 0* % | 0* % | 30* % | 0* % | 68* %
10 | CCC(C)Cn1c(-c2c(F)cccc2F)c(Cl)nc(-n2ccnc2C(C)C)c1=O (stereo not drawn) [compound 72] | – | 0% | 0% | – | – | – | – | 0% | – | 0% | 0% | – | 74* % | – | 0* % | 53* % | 0* % | 58* % | 0* % | 61* %
11 | CC(C)Cn1c(-c2ccc(C(C)(C)C)cc2)c(Cl)nc(-n2cccn2)c1=O [compound 74] | – | 0% | 0% | – | – | – | – | 0% | – | 0% | 0% | – | 26* % | – | 0* % | 75* % | 0* % | 0* % | 0* % | 80* %
12 | CC(C)Cn1c(-c2ccc(C(C)(C)C)cc2)c(Cl)nc(-n2cncn2)c1=O [compound 75] | – | 0% | 0% | – | – | – | – | 0% | – | 0% | 0% | – | 7* % | – | 0* % | 0* % | 0* % | 0* % | 0* % | 0* %
13 | CC(C)Cn1c(-c2ccc(C(F)(F)F)cc2)c(Cl)nc(-n2cncn2)c1=O [compound 76] | – | 0% | 0% | – | – | – | – | 0% | – | 0% | 21% | – | 0* % | – | 0* % | 0* % | 0* % | 0* % | 0* % | 0* %
14 | CC(C)Cn1c(-c2ccc(OC(F)(F)F)cc2)c(Cl)nc(-n2cncn2)c1=O [compound 77] | – | 0% | 0% | – | – | – | – | 0% | – | 0% | 0% | – | 0* % | – | 0* % | 0* % | 0* % | 0* % | 0* % | 0* %
15 | COC(=O)C(C)=NNc1nc(Cl)c(-c2c(F)cccc2F)n(CC(C)C)c1=O [compound 78] | 91% | 0% | 0% | 0% | 0% | 0% | 0% | 0% | 0% | 0% | 0% | 0% | – | – | – | – | – | – | – | –
16 | Cc1ccc(-c2c(Cl)nc(-n3cccn3)c(=O)n2CC(C)C)c(C)c1 [compound 80] | 100% | 0% | – | 100% | 94% | 99% | 47% | 0% | 100% | 0% | 0% | 100% | – | 0* % | – | – | – | – | – | –

— patent US20080194585A1, “Fungicidal Pyrazine Derivatives” (priority 2005, published 2008)
